The nature of data set [1]: Homogeneity and content uniformity of 25HC3S suspension by HPLC. In kind it is physicochemical. The procedure:
(§1) The HPLC technique involved reverse phase HPLC for measuring the concentration of 25HC3 S in the solubility samples.
Weigh 80 mg of 25HC3S (Lot #B, Passed through 20 mesh screen and Jet-milled, 3rd pass) into a 10 mL vial. Add to the vial, 8 mL of Vehicle PEG 3350 (with 0.15% L-Methionine and 0.9% NaCl). […] A total of 9 samples were dispensed using 1 mL BD syringes attached to 20G1″ or 25G⅝″ Terumo UTW needles for homogeneity analysis by HPLC (Study #14) and stability study (Study #17).
Weigh 50 and 80 mg of 25HC3S into 2 and 10 mL vials, respectively. Add to the vial, 2 mL and 8 mL of Vehicle PEG 3350 with L-Methionine. […] The vial was inverted 10 times prior to dispensing 0.2 or 0.9 mL into volumetric flasks for methanol dilution for HPLC analysis (total 8 and 7 samples, respectively for HPLC analysis for potency and stability (Study #15).
Weighed approximately 125 mg each of 25HC3S (Lot #C, jet milled and passed through a 20 mesh screen) into a 10 mL vial. Added to vial, 5 mL of Vehicle PEG 3350 without L-Methionine. The vial was placed horizontally in a flat bed shaker, shaken at 100 rpm for up 45 minutes (Mixing Method 4). There were some small wet lumps stuck to the wall and bottom of the glass vial.
(§2) Weigh 87 mg of 25HC3S (Lot #C, Jet milled and then pass 20 mesh screen) into a 5-mL vial. Add to the vial 3 mL Vehicle PEG 3350 (without L-methionine and with 0.75% NaCl). […] Weigh another approximately and accurately 90 mg each of 25HC3S (Lot #D and Lot #B, micronized, one pass) into 3 separate 10 mL vials with 3 mL of Vehicle PEG 3350. The vials were placed in a flat bed shaker at 200 rpm for 45 minutes (Mixing Method 4). […] A second set of samples was prepared likewise from the same 3 vials except using 1 mL BD syringe attached to a 27G½″ needle. The homogeneity was determined (Study #19).

Data set [2] can be described thus: Solubility of 25HC3S in aqueous solutions, organic solvents or oils. In kind it is physicochemical. The settings on record: various aqueous solutions and FDA approved organic solvents or oils.
Source text: as §1

A short description of data set [3]: Single SC injection PK study in Beagle dogs. The settings on record: single SC dose 25 mg/kg. It is filed as in vivo. Here is the method: The subjects for the study were 5 male Beagle dogs (4-7 years of age; 8-11 kg). […] All animals were in healthy condition and admitted to the study.
The Vehicle was a solution of 3% (w/v) polyethylene glycol 3350, 0.3% (w/v) polysorbate 80, 0.7% (v/v) sodium chloride, 0.15% (w/v) L-methionine, 10 mM sodium phosphate buffer at pH 7.4 in water. 25HC3 S was mixed into the Vehicle solution to result in a drug concentration of 25 mg/mL. […] The formulated test article was used within 24 hours of constitution.
Each dog received a single subcutaneous injection. The dose level of 25 mg/kg was administered in a dose volume of 1 mL/kg. Whole blood samples were collected via the jugular vein at pre-dose, 0.5, 1, 2, 4, 8, 12, 24, and 32 hours (h) post dose. Blood samples were placed into tubes containing K2EDTA. The blood was gently mixed to assure distribution of the anti-coagulant and the resulting plasma samples underwent analyses to quantify 25HC3S levels. […] Assessments included, but were not limited to, evidence of pain on injection, assessment of activity, posture, respiration, emesis, seizure, hydration status, injection site assessment.

Data set [4] relates to bile duct ligation cholestasis. Put plainly: Bile duct ligated (BDL) rat model of cholestasis. It is filed as in vivo, CD1 rats. The procedure:
The subjects for the study were CD1 male rats (8 weeks of age, 200-225 g). Rats underwent BDL surgery, where the extrahepatic biliary tract was tightly ligated twice with sutures, then cut between the two ligations. A sham group (N=5/group) was also included in a subset of the studies described. […] The Vehicle was a solution of 0.5% (w/v) CMC and 0.05% (v/v) Tween-80 in water. Powdered 25HC3 S was constituted into the Vehicle solution to result in drug concentrations of 0.833 to 5 mg/mL. The suspensions were homogenized for approximately 5 minutes being combined, with 10 second breaks every 30-40 seconds and swirled before dosing to maintain homogeneity. The formulated test article was prepared weekly and kept at room temperature. […] were divided into treatment groups (N=8-10/group) and dosed daily or every 3 days for 9 days by oral gavage. 5, 10, 30 or 60 mg/kg 25HC3S or Vehicle was given starting one day (Day 1) after BDL surgery. On Day 10, serum was collected after an overnight fast and measured for serum biochemistry.

A short description of data set [5]: Stress study of suspension formulation with hydrogen peroxide. It is filed as physicochemical. The settings on record: stress study of 25HC3S suspension formulation with hydrogen peroxide. The text has this: L-Methionine was initially added as an antioxidant. […] Therefore, L-Methionine was removed from the preferred suspension formulation. 25HC3S in Vehicle PEG 3350 (without L-Methionine) was used for further syringeability study (Studies #12 and 13).

A short description of data set [6]: Osmolality by vapor pressure osmometer. In kind it is physicochemical. The procedure:
Vapor Pressure Osmometer: Vapor® Vapor Pressure Osmometer, Model
Vehicle PEG 3350 (3% PEG 3350 plus 0.3% Tween 80 in 10 mM Phosphate at pH 7.4) with 0.71%, 0.77% and 0.80% NaCl were prepared and the osmolality was measured with a vapor pressure osmometer.
as §2

[7] abbreviates: daily oral 10 or 30 mg/kg (follow-up study).

Regarding `C[C@H](CCCC(C)(C)O)[C@H]1CC[C@H]2[C@@H]3CC=C4C[C@@H](OS(=O)(=O)[O-])CC[C@]4(C)[C@H]3CC[C@]12C.[Na+]` [Formulation 25HC3S, 5-cholesten-3, 25-diol, 3-sulfate], the homogeneity was 100.5-103.1 % LS in data set [1] (10 mg/mL in Vehicle PEG 3350 (with 0.15% L-Methionine), n=7, 0.9 mL each, Study #15); 94.3-98.1 % LS in data set [1] (10 mg/mL suspension in Vehicle PEG 3350 (0.15% L-Methionine, 0.9% NaCl), Lot #B jet-milled 3rd pass, n=9, Study #14); 96.2-109.4 % LS in data set [1] (25 mg/mL in Vehicle PEG 3350 (with 0.15% L-Methionine), n=8, 0.2 mL each, Study #15). Besides, in data set [1] (final improved formulation 25 mg/mL (Study #19)), the “homogeneity (and content uniformity)” value is reported as 89.3-105.9 % label strength. Also, the solubility entry in data set [2] is given as “low solubility”. The clinical signs entry in data set [3] is on record as “no observable clinical signs”. In data set [3] (PEG 3350 suspension 25 mg/mL), the “mean time to maximum plasma drug concentration” value was found to be 23.2 h. The “mean concentration at 32 h” value in data set [3] (plasma) is given as 157.6 ng/mL. Further, the “body weight and other serum chemistry measures” value in data set [4] (daily oral 5 mg/kg) is reported as “little or no differences”. For the same molecule, the “Body temperature on Day 9” value in data set [4] (daily oral 5 mg/kg, vs Vehicle) is “significantly improved”. Further, the spleen-to-body weight ratio result in data set [4] (daily oral 5 mg/kg, vs Vehicle) was “significantly improved”. Further, the “body weight gain after surgery” value in data set [4] (daily oral 30 mg/kg (pilot study)) was “significantly improved”; in data set [4] (daily oral 60 mg/kg (pilot study)), “modest increases”. The liver histological analyses result in data set [4] (setting [7]) is “no differences”. Further, the serum liver enzymes result in data set [4] (setting [7]) was “trends of decrease”. The “Serum total, direct and indirect bilirubin levels” value in data set [4] (daily oral 10 or 30 mg/kg, vs Vehicle (follow-up study)) is given as “significantly reduced”. Besides, in data set [4] (daily oral 30 or 60 mg/kg (pilot study)), the “serum biochemistry analytes, including serum bilirubin” value is “No significant differences”. In addition, in data set [4] (oral every three days (Days 1, 4, 7), 10 or 30 mg/kg), the “body weight, organ-to-bodyweight ratios or serum clinical chemistry” value is reported as “no significant differences”. For the same molecule, the oxidative degradation entry in data set [5] is on record as “oxidative degradation did not occur”. The osmolality was found to be 321 mmol/kg in data set [6] (final improved formulation 25 mg/mL (Study #18)) and 321 mmol/kg in data set [6] (suspension 25 mg/mL in Vehicle PEG 3350 without L-Methionine, 0.75% NaCl, average of 6 measurements).
